# Experimental data taken from patent US20050124694A1, “Method of accelerating metabolism of alcohol” (priority 2003, published 2005).
# Assay: Breath sample analysis for alcohol (BAC) in volunteers after 5 glasses of wine
# Assay type: in vivo, human
# Settings: for BAC AFTER 30 MIN.: 30 min after 5 glasses of wine on an empty stomach together with a fifty gram dose; for BAC AFTER 30 MIN. / BAC AFTER 60 MIN / BAC AFTER 90 MIN / BAC AFTER 120 MIN / BAC AFTER 150 MIN / BAC AFTER 180 MIN / BAC AFTER 210 MIN / BAC AFTER 240 MIN: breath sample; for BAC AFTER 60 MIN: 60 min after 5 glasses of wine on an empty stomach together with a fifty gram dose; for BAC AFTER 90 MIN: 90 min after 5 glasses of wine on an empty stomach together with a fifty gram dose; for BAC AFTER 120 MIN: 120 min after 5 glasses of wine on an empty stomach together with a fifty gram dose; for BAC AFTER 150 MIN: 150 min after 5 glasses of wine on an empty stomach together with a fifty gram dose; for BAC AFTER 180 MIN: 180 min after 5 glasses of wine on an empty stomach together with a fifty gram dose; for BAC AFTER 210 MIN: 210 min after 5 glasses of wine on an empty stomach together with a fifty gram dose; for BAC AFTER 240 MIN: 240 min after 5 glasses of wine on an empty stomach together with a fifty gram dose; for Effect on the consumer's BAC as measured by the test, compared with no administration: fifty gram dose with 5 glasses of wine
# Description: A commercially available instrument was used to analyze breath samples provided by volunteers for alcohol. TEN volunteers each consumed 5 GLASSES OF WINE on an empty stomach together with a FIFTY GRAM dose of one or more compounds of formula (I) as tabulated below. A control group of volunteers WAS not given any of the compound. The volunteers then provided _[…] breath samples for analysis at intervals of 30 minutes. THE COMPOUNDS GIVEN AND THE SAC LEVELS READ AT EACH SAMPLING ARE TABULATED BELOW
SMILES,BAC AFTER 30 MIN.,BAC AFTER 60 MIN,BAC AFTER 90 MIN,BAC AFTER 120 MIN,BAC AFTER 150 MIN,BAC AFTER 180 MIN,BAC AFTER 210 MIN,BAC AFTER 240 MIN,"Effect on the consumer's BAC as measured by the test, compared with no administration"
CC(=O)O[C@H](CC(=O)[O-])C[N+](C)(C)C [compound II],0.10%,0.09%,0.08%,0.08%,0.07%,0.06%,0.04%,0.03%,helps to diminish the consumer's BAC as measured by the test more rapidly than without such administration
NC(=O)CC[C@H](N)C(=O)O [III],0.09%,0.08%,0.08%,0.07%,0.07%,0.05%,0.04%,0.03%,helps to diminish the consumer's BAC as measured by the test more rapidly than without such administration
